Key:
[1] = Binding affinity constant against KDO 8-P synthase
[2] = Inhibitory concentration against KDO 8-P synthase
[3] = kinact was determined.
[4] = Inhibitory concentration against Chorismate mutase; set-up: species or system Bacillus subtilis

Ki [1] [mM] | IC50 [2] [mM] | K inact [3] | IC50 [4] [mM] | Compound
2.3 | 0.4 | 0.01 | – | CCCC/N=C(\S)C(O)C(O)C(O)C(O)CO (stereo not given)
– | > 1 | – | 0.35 | O=C(O)CC1(O)CCCCC1
– | > 1 | – | – | CC1(C(=O)[O-])CCC(C(=O)[O-])C1(C)C.[Na+].[Na+] (stereo not given)
– | > 1 | – | – | O=C(O)C1C2C=CC(CCC2)C1C(=O)O (stereo not given)
– | > 0.5 | – | – | O=C(O)C1=C(C(=O)O)C2C=CC1[C@@H]1C(C(=O)O)[C@H]21 (stereo not given in full)
– | > 1 | – | – | O=C(O)C12CCC(C(=O)O)(CC1=O)C(=O)C2
– | > 1 | – | – | O=C(O)C1C2C=CC(C3CC23)C1C(=O)O (stereo not given)

— ChEMBL document CHEMBL1133822, “Studies on 3-deoxy-D-manno-octulosonic acid 8-phosphate synthase using chorismate mutase inhibitors” (Bioorg Med Chem Lett, 2001)
